{
  "source": "patent US6855549B1",
  "about": "“Methods and compositions for increasing the infectivity of gene transfer vectors” (The University of Iowa Research Foundation, priority 1998, dated 2005)",
  "key": {"[1]": {"system": "rabbit tracheal epithelium", "test": "Retroviral or adenoviral gene transfer to rabbit tracheal epithelium after EGTA pretreatment", "format": "in vivo", "settings": "retroviral (MuLV, KGF pretreated) or adenoviral vector, three days", "description": "Gene transfer to the rabbit tracheal epithelium In Vito. Adult New Zealand white rabbits were anesthetized with 32 mg/kg ketamnine, 5.1 mg/kg xylazine and 0.8 mg/kg acepromazine intramuscularly. Using sterile technique, a ventral midline incision was made, exposing the trachea for tracheotomy. A ˜1.5 cm tracheal segment cephalad to the tracheotomy was isolated, and cannulated on each end with PE 330 tubing (Clay Adams, Becton Dickinson). The tracheal segment was first rinsed and then filled with a solution of 12 mM EGTA in water for 45 min. The EGTA solution was removed, and as replaced with 300 μl of retrovirus (titer 3×10^9 cfu/ml) or adenovirus (titer 1×10^10 pfu/ml) vector. In control animals, saline was substituted for water and EGTA treatment. Animals that received the MuLV retrovirus were pretreated with keratinocyte growth factor (KGF) prior to gene transfer to stimulate epithelial proliferation (˜5 mg/kg intravenously and 600 μg via nasal instillation for 3 doses given 36, 24 and 12 hr preceding the procedure) (Wang et al., 1998; Wang et al., 1999). The vector solution was left in place for an additional 45 min. and then the cannulae were removed, the incisions closed, and animals were allowed to recover. Three days later, animals were sacrificed, and the tissues studied for β-galactosidase expression."}, "human nasal epithelium": {"system": "human nasal epithelium", "test": "Nasal transepithelial voltage (Vt) in human volunteers", "format": "in vivo", "description": "Human studies. The Vt across the nasal epithelium was measured in 6 volunteers using previously described methods (Zabner et al., 1996). The protocol followed was identical to that described above for the rabbit studies. […] The catheter was then left in that position for the entire recording period. The solutions were administered through the second lumen in the following order: 1) Normal saline for 5 min; 2) Sterile water with 10 mM EGTA or 10 mM EDTA for 10 min; 3) Nommal saline with 10 mM EGTA or 10 mM EDTA for 5 min; and 4) Normal saline with 10 mM, EGTA or 10 mM EDTA plus […] amiloride for 5 min. Measurements of Vt were read by two investigators who were blinded and wvere checked by a third investigator if there was a discrepancy of more than 2 mV. Disruption of epithelial junctions was assessed by detecting a fall in nasal Vt after perfusion with the chelator, and by the loss of amiloride-sensitive Vt after perfusion with the. chelator solution."}, "[2]": {"system": "differentiated human airway epithelia", "test": "Transepithelial resistance of KGF-treated airway epithelia with Ca2+ chelators", "format": "cell-based", "settings": "6 mM chelator, isotonic (220 mmol/kg)", "description": "Differentiated epithelial cells were treated with 100 ng/ml KGF for 24 hr. Different concentrations of each calcium chelator in HEPES/HCl (pH 7.4) or in isotonic HEPES/saline (pH 7.4) buffer were mixed with vector buffer and applied to the apical surface for times as specified (Wang et al., 1998). Transepithelial resistance was measured with an Ohmmeter (EVOM; World Precision Instruments, Inc. Sarasota, Fla.) by adding cell culture media to the apical surface and the values were compared to untreated controls.\nTo understand whether the tonicity of the vector solution affects epithelial permeability and gene transfer efficiency, hypotonic (40 mmol/kg) or isotonic (220 mmol/kg) solutions of 6 mM EGTA, EDTA or BAPTA were added to the MuLV vector buffer and applied to the apical surface of differentiated airway epithelial cells pre-treated with KGF. At specific time intervals, transepithelial resistance (R1) was measured using an Ohmmeter."}, "[3]": {"system": "human bronchial epithelial cells", "format": "cell-based", "description": "Primary human airway epithelial cells were collected by enzymatic digestion of bronchial samples from lung transplants as previously described (Kondo et al., 1991; Zabner et al., 1996). Isolated airway primary cells were seeded at a density of 5×10^5 cells/cm^2 onto collagen-coated Millicell-HA culture inserts (Millipore, Bedford, Mass.). Primary cultures were grown at the air-liquid interface for more than 2 wk, at which time differentiation into a mucociliary epithelium occurs. The culture medium, used to feed only the basolateral side of the cells, contained 49% Dulbecco's modified Eagle's medium (DMEM), 49% Ham's F12, and 2% Ultraser G (BioSepra, Cedex, France).\nRecombinant AAV virus was produced by a CaPO4 co-transfection protocol and was purified through three rounds of isopycnic cesium chloride ultracentrifuigation, as previously described (Duan et al., 1997). The proviral plasmid, pCisAV.GFP3ori, was used to generate rAAV (AV.GFP3ori), which encoded the enhanced green fluorescent protein (EGFP) reporter gene under the transcriptional control of the cytomegalovirus (CVM) enhancer/promoter and simian virus 40 (SV40) polyadenylation signal (Duan et al., 1998). Recombinant viral stocks were heated at 58° C. for 60 min to inactivate contaminating helper adenovirus. Typical yields were 1×10^9 particles/μl, determined on the basis of DNA slot-blot hybridization assays against plasmid standards. The level of adenoviral contamination, as based on a second reporter assay for the recombinant adenovirus used for propagation (Ad.CMVAlkphos) (Duane et al., 1997), was less than 1 functional particle per 1×10^10 DNA particles of rAAV. Viral preparations were evaluated for the contamination of wild type AAV (wtAAV) by immunocytochemical staining of AV.GFP3ori/Ad.CMVLacZ (Duan et al., 1998)-coinfected 293 cells with anti-Rep antibodies (American Research Products, Belmont, Mass.). […] Transfection with Rep/Cap-encoding plasmids served as controls for antibody staining of Rep protein. Virus was dialyzed in phosphate-buffered saline (PBS) prior to application on primary airway cultures. […]"}},
  "note": "Entries after “also recorded” stand apart in the source; their conditions may differ.",
  "data": [
    {"smiles": "O=C(O)CN(CCOCCOCCN(CC(=O)O)CC(=O)O)CC(=O)O", "note": "[EGTA]", "values": [
      {"measurement": "gene transfer to tracheal epithelium after pretreatment with 12 mM EGTA in water", "setting": "[1]", "value": "transduced cells throughout the tracheal epithelium"},
      {"measurement": "adverse effects of nasal perfusion", "setting": "human nasal epithelium; 10 mM EGTA, volunteers", "value": "did not experience any adverse effects"},
      {"measurement": "nasal Vt", "setting": "human nasal epithelium; H2O/chelator then chelator in saline, 10 mM", "value": "there was a significant decrease in the Vt"},
      {"measurement": "amiloride-sensitive nasal Vt after EGTA treatment", "setting": "human nasal epithelium; n=6", "value": "EGTA treatment abolished the amiloride-sensitive Vt; also recorded: essentially no amiloride-sensitive Vt remained"},
      {"measurement": "time required to decrease R1 to ~20% of the controls", "setting": "[2]", "value": "Sixty"},
      {"measurement": "apical transduction after EGTA, lower than maximal basolateral level", "setting": "[3]", "value": 20, "unit": "fold"},
      {"measurement": "rAAV transduction, EGTA and virus on basolateral side", "setting": "[3]", "value": "no significant differences were seen in the extent of rAAV"},
      {"measurement": "integrity of the monolayers by light microscopy", "setting": "[3]; 40 days after hypotonic/EGTA treatment", "value": "No significant differences were detected in the integrity of the monolayers"}
    ]}
  ]
}
